What was measured:
RSV A2 (PRNT1) = assay: RSV plaque reduction assay, A2 (PRNT1), Vero cells; assay type: cell-based, respiratory syncytial virus; conditions: n = 4
Method: Plaque Reduction Assay: […] After an overnight incubation at 37° C. in a humidified 5% CO2 atmosphere, the monolayer of cells should be approximately 90% confluent. Antiviral compounds were titrated in pre-warmed Serum Free (SF) Optimem in a U-bottom 96 well plate. […] Media was then removed from cells and replaced with PBS (100 μl/well). RSV stock was thawed and diluted in SF Optimem media to 4000 PFU/mLl. An equal volume of virus was added to compounds on the titration plate. PBS was removed from cells which were then inoculated with the virus/compound solution (50 μL/well). Cells were incubated for 2 h in a 37° C.+5% CO2 humidified incubator to allow infection. […] Immunostaining Procedure: Media was removed from cells and the monolayer washed with PBS. Cells were fixed with ice cold 80% Acetone in PBS (100 μl/well) for 20 mins at −20° C. […] Blocking solution was removed and plates washed once with PBS-T. Primary antibody in blocking solution was added to plates (50 μl/well) and incubated for 1 h at 37° C. Plates were then washed 3 times with PBS-T. Secondary antibody in blocking solution was added to plates (50 μL/well) and incubated for 1 h at 37° C. in the dark. […] Plates were scanned on the Odyssey Imager (Li-Cor Biosciences) at a resolution of […], medium quality and level 5 intensity in the […]. Data Analysis: Images obtained were saved and plaque numbers counted with the aid of computer imaging software. EC50 values for compounds were derived from dose response curves [three variable log (inhibitor) vs response] obtained using Graphpad Prism software.

[1] = Liver microsomal stability, dog; assay type: in vitro ADME; conditions: male, Beagle, pooled liver microsomes, pH 7.4, 3 μM compound, read-out: Liver Microsomal Stability T1/2, dog
Method: (§1) Microsomal Incubation: Experimental Procedure
(§2) Pooled human liver microsomes (pooled male and female), pooled rat liver microsomes (male Sprague Dawley rats) and pooled dog liver microsomes (male Beagle dog) are purchased from a reputable commercial supplier and stored at −80° C. prior to use.
(§3) Microsomes (final protein concentration 0.5 mg/mL), 0.1 M phosphate buffer pH 7.4 and test compound (final substrate concentration 3 μM; final DMSO concentration 0.25%) are pre-incubated at 37° C. prior to the addition of NADPH (final concentration 1 mM) to initiate the reaction. The final incubation volume is 50 μL. A control incubation is included for each compound tested where 0.1 M phosphate buffer pH 7.4 is added instead of NADPH (minus NADPH). Two control compounds are included with each species. All incubations are performed singularly for each test compound.
(§4) Compounds are incubated for 0, 5, 15, 30 and 45 min. The control (minus NADPH) is incubated for 45 min only. The reactions are stopped by transferring 25 μL of incubate to 50 μL methanol at the appropriate time points. The termination plates are centrifuged at 2,500 rpm for 20 min at 4° C. to precipitate the protein. Following protein precipitation, the sample supernatants are combined in cassettes of up to 4 compounds, internal standard is added and samples analysed by LC-MS/MS. From a plot of ln peak area ratio (compound peak area/internal standard peak area) against time, the gradient of the line is determined. Subsequently, half-life and intrinsic clearance are calculated

[2] = Liver microsomal stability, human; assay type: in vitro ADME; conditions: both sexes, pooled liver microsomes, pH 7.4, 3 μM compound, read-out: Liver Microsomal Stability T1/2, human
Method: as §1, §2, §3, §4

[3] = Liver microsomal stability, rat; assay type: in vitro ADME; conditions: male, Sprague Dawley, read-out: Liver Microsomal Stability T1/2, rat
Method: as §1, §2
The final incubation volume is 50 μL. A control incubation is included for each compound tested where 0.1 M phosphate buffer pH 7.4 is added instead of NADPH (minus NADPH). Two control compounds are included with each species. All incubations are performed singularly for each test compound.
as §4, with “The” for “Compounds are incubated for 0, 5, 15, 30 and 45 min. The control (minus NADPH) is incubated for 45 min only. The”

[4] = In vivo pharmacokinetics in rats (IV and PO); parameters: species or system male Sprague Dawley rats; conditions: male Sprague Dawley rats, 1 mg/kg (IV)
Method: The pharmacokinetics of compounds were studied in vivo in male Sprague Dawley rats at doses of 1 mg/kg (IV) and 10 mg/kg (PO).
Sprague Dawley rats were treated with experimental compounds via intravenous and oral administration. Three animals for each route of administration were used with serial blood sampling at ten time points post dosing of compound.
Animals were weighed and used if between 200-250 g. Serial blood samples were collected at 0.02, 0.08, 0.25, 0.50, 1, 2, 4, 6, 8 and 24 hours post dosing. […] Blood samples were delivered into an anticoagulant (sodium heparin) and centrifuged at 4° C. Plasma samples were subsequently stored frozen at less than −20° C. prior to analysis.
Following protein precipitation with acetonitrile, samples were analysed with tandem liquid chromatography/mass spectrometry using electrospray ionisation. A full matrix curve with internal standards was employed and PK parameters were calculated.
In a similar manner, oral administration was performed by gavage at doses of 5 or 10 mg/kg at a concentration of 5 mg/ml in 1% Methyl cellulose (Sigma M7140), 0.1% Tween 80 in water. Serial samples were taken as described above.
RV039 was administered at doses of 1 mg/kg (IV) and 5 mg/kg (PO).

[5] = human respiratory syncytial virus, Vero

| SMILES | IC50 (RSV A2 (PRNT1); [5]) | half-life at 3 μM [1] | half-life at 3 μM [2] | half-life at 3 μM ([3]; pH 7.4, rat liver microsomes, 3 μM compound) | half-life at 3 μM ([3]; pooled liver microsomes, pH 7.4, 3 μM compound) | IC50 (RSV A2 (PRNT1)) | Volume of distribution [4] |
| --- | --- | --- | --- | --- | --- | --- | --- |
| NCc1ccc2c(c1)nc(CN1C(=O)C3(CC3)c3ccc(F)cc31)n2C1CCOCC1 [Example 7, 1′-((5-(aminomethyl)-1-(tetrahydro-2H-pyran-4-yl)-1H-benzo[d]imidazol-2-yl)methyl)-6′-fluorospiro[cyclopropane-1,3′-indolin]-2′-one] | 1.6 nM | 55.8 h | 0.557 h | 4.1 h | – | – | – |
| CC(C)CCn1c(CN2C(=O)C3(CC3)c3ccncc32)nc2cc(CN)ccc21 [Example 6, 1′-((5-(aminomethyl)-1-isopentyl-1H-benzo[d]imidazol-2-yl)methyl)spiro[cyclopropane-1,3′-pyrrolo[2,3-c]pyridin]-2′(1′H)-one] | 2.3 nM | 18.3 h | 3.82 h | – | 2.08 h | – | – |
| CC(C)CCn1c(CN2C(=O)C3(CC3)c3cccnc32)nc2cc(CN)ccc21 [Example 5, 1′-((5-(aminomethyl)-1-isopentyl-1H-benzo[d]imidazol-2-yl)methyl)[spirocyclopropane-1,3′-pyrrolo[2,3-b]pyridin]-2′(1′H)-one] | – | – | – | – | – | 5.3 nM | Example 5: 8.2 L/kg |
| NCc1ccc2c(c1)nc(CN1C(=O)C3(CC3)c3ccc(F)cc31)n2C1CCC(O)CC1 [Example 8, 1′-((5-(Aminomethyl)-1-((1R,4R)-4-hydroxycyclohexyl)-1H-benzo[d]imidazol-2-yl)methyl)-6′-fluorospiro[cyclopropane-1,3′-indolin]-2′-one] | – | – | – | – | – | 4.8 nM | – |

— patent US10106539B2, “Spiro-indolines for the treatment and prophylaxis of respiratory syncytial virus infection (RSV)” (REVIRAL LIMITED, priority 2014, dated 2018)
